According to paper PMC10336134, “Effects of dialkoxybenzenes against Varroa destructor and identification of 1-allyloxy-4-propoxybenzene as a promising acaricide candidate” (Scientific Reports, 2023):

Tests used:
[1] = test system: T1, Varroa destructor AChE (VdAChE); assay: Ellman assay, […] nm; format: biochemical; conditions: no test compound; sodium phosphate pH 7.6, DTNB, ethanol/Tween 20; mite extract; read-out: KM (× 10^-5 M)
T1 construct: native extract from pre-frozen mites

Honey bee AChE (AmAChE) = test system: T2, Honey bee AChE (AmAChE); assay: Ellman assay; format: biochemical, Apis mellifera; conditions: no test compound; sodium phosphate pH 7.6, DTNB, ethanol/Tween 20; bee isolate; read-out: KM (× 10^-5 M)
T2 construct: gene AmAChE1; native isolate from nurse bees
Description: Ellman assay on Honey bee AChE (AmAChE)

[2] = target: T3, Human expressed AChE (hAChE) (Homo sapiens, UniProt P22303); assay: Ellman assay, Michaelis-Menten kinetics with inhibitor; format: biochemical; conditions: acetylthiocholine; 0.5-3 mM compound; pH 7.6; competitive
T3 construct: recombinant, commercial lyophilized powder (Sigma C1682)

purified protein = substrate: CC(=O)SCC[N+](C)(C)C; assay: purified protein; format: biochemical, Homo sapiens; conditions: no test compound, sodium phosphate pH 7.6, DTNB, ethanol/Tween 20

Question: With `CC(=O)SCC[N+](C)(C)C` [acetylthiocholine iodide] as the molecule, how does the Km [1] read?
Answer: 14 µM

Question: What about the Km (Honey bee AChE (AmAChE)) of the same molecule?
Answer: 22 µM

Question: `CCN(CC)C(=O)c1cccc(C)c1` [DEET] was tested. Which “Ellman assay, Michaelis-Menten kinetics with inhibitor” value [2] did it give?
Answer: all three forms of the enzyme, hAChE, AmAChE and VdAChE, were competitively inhibited by DEET

B1: Human expressed AChE (hAChE) (Homo sapiens) (protein)
chain: EGREDAELLVTVRGGRLRGIRLKTPGGPVSAFLGIPFAEPPMGPRRFLPPEPKQPWSGVVDATTFQSVCYQYVDTLYPGFEGTEMWNPNRELSEDCLYLNVWTPYPRPTSPTPVLVWIYGGGFYSGASSLDVYDGRFLVQAERTVLVSMNYRVGAFGFLALPGSREAPGNVGLLDQRLALQWVQENVAAFGGDPTSVTLFGESAGAASVGMHLLSPPSRGLFHRAVLQSGAPNGPWATVGMGEARRRATQLAHLVGCPPGGTGGNDTELVACLRTRPAQVLVNHEWHVLPQESVFRFSFVPVVDGDFLSDTPEALINAGDFHGLQVLVGVVKDEGSYFLVYGAPGFSKDNESLISRAEFLAGVRVGVPQVSDLAAEAVVLHYTDWLHPEDPARLREALSDVVGDHNVVCPVAQLAGRLAAQGARVYAYVFEHRASTLSWPLWMGVPHGYEIEFIFGIPLDPSRNYTAEEKIFAQRLMRYWANFARTGDPNEPRDPKAPQWPPYTAGAQQYVSLDLRPLEVRRGLRAQACAFWNRFLPKLLSATDTLDEAERQWKAEFHRWSSYMVHWKNQFDHYSKQDRCSDL
notes: recombinant, commercial lyophilized powder (Sigma C1682)
Question: What does the source list for B1?
Answer: Km (purified protein): (1.0 ± 0.2) × 10^-4 M; Vmax (purified protein): 51 µM/min
